Results from ChEMBL document CHEMBL2413072, “Synthesis and in vitro anticancer studies of novel C-2 arylidene congeners of lantadenes” (2013).

Tests used:
Assay type in all cases: functional
KM12 [1] = assay: Growth inhibition of human KM12 cells by sulforhodamine B assay
[2] = Growth inhibition of human HCC2998 cells by sulforhodamine B assay
MOLT-4 [3] = assay: Growth inhibition of human MOLT4 cells by sulforhodamine B assay
RPMI-8226 [4] = assay: Growth inhibition of human RPMI8226 cells by sulforhodamine B assay
HL-60(TB) [5] = assay: Growth inhibition of human HL-60(TB) cells by sulforhodamine B assay
IGROV-1 = assay: Growth inhibition of human IGROV1 cells assessed as cell growth at 10^-8 M by sulforhodamine B assay; conditions: read-out: Activity
SK-MEL-28 [6] = assay: Growth inhibition of human SK-MEL-28 cells assessed as cell growth at 10^-8 M by sulforhodamine B assay; conditions: read-out: Activity
SK-MEL-2 = assay: Growth inhibition of human SK-MEL-2 cells assessed as cell growth at 10^-8 M by sulforhodamine B assay; conditions: read-out: Activity
M14 = assay: Growth inhibition of human M14 cells assessed as cell growth at 10^-8 M by sulforhodamine B assay; conditions: read-out: Activity
SF-268 [7] = assay: Growth inhibition of human SF268 cells assessed as cell growth at 10^-8 M by sulforhodamine B assay; conditions: read-out: Activity
SW-620 [8] = assay: Growth inhibition of human SW620 cells assessed as cell growth at 10^-8 M by sulforhodamine B assay; conditions: read-out: Activity
RPMI-8226 [9] = assay: Growth inhibition of human RPMI8226 cells assessed as cell growth at 10^-8 M by sulforhodamine B assay; conditions: read-out: Activity
MOLT-4 [10] = assay: Growth inhibition of human MOLT4 cells assessed as cell growth at 10^-8 M by sulforhodamine B assay; conditions: read-out: Activity
HL-60(TB) [11] = assay: Growth inhibition of human HL-60(TB) cells assessed as cell growth at 10^-8 M by sulforhodamine B assay; conditions: read-out: Activity
SK-OV-3 = assay: Growth inhibition of human SKOV3 cells by sulforhodamine B assay
OVCAR-8 = assay: Growth inhibition of human OVCAR8 cells by sulforhodamine B assay
OVCAR-5 = assay: Growth inhibition of human OVCAR5 cells by sulforhodamine B assay
SN12C [12] = assay: Growth inhibition of human SN12C cells assessed as cell growth at 10^-4 M by sulforhodamine B assay; conditions: read-out: Activity
RXF 393 = assay: Growth inhibition of human RXF393 cells assessed as cell growth at 10^-4 M by sulforhodamine B assay; conditions: read-out: Activity
SF-295 = assay: Growth inhibition of human SF295 cells assessed as cell growth at 10^-4 M by sulforhodamine B assay; conditions: read-out: Activity
SW-620 [13] = assay: Growth inhibition of human SW620 cells assessed as cell growth at 10^-4 M by sulforhodamine B assay; conditions: read-out: Activity
KM12 [14] = assay: Growth inhibition of human KM12 cells assessed as cell growth at 10^-4 M by sulforhodamine B assay; conditions: read-out: Activity
NCI-H460 [15] = assay: Growth inhibition of human NCI-H460 cells assessed as cell growth at 10^-4 M by sulforhodamine B assay; conditions: read-out: Activity
A549 = assay: Growth inhibition of human A549/ATCC cells assessed as cell growth at 10^-4 M by sulforhodamine B assay; conditions: read-out: Activity
HL-60(TB) [16] = assay: Growth inhibition of human HL-60(TB) cells assessed as cell growth at 10^-4 M by sulforhodamine B assay; conditions: read-out: Activity
SN12C [17] = assay: Growth inhibition of human SN12C cells assessed as cell growth at 10^-6 M by sulforhodamine B assay; conditions: read-out: Activity
SK-MEL-28 [18] = assay: Growth inhibition of human SK-MEL-28 cells assessed as cell growth at 10^-6 M by sulforhodamine B assay; conditions: read-out: Activity
LOX IMVI = assay: Growth inhibition of human LOXIMVI cells assessed as cell growth at 10^-6 M by sulforhodamine B assay; conditions: read-out: Activity
SF-268 [19] = assay: Growth inhibition of human SF268 cells assessed as cell growth at 10^-6 M by sulforhodamine B assay; conditions: read-out: Activity
NCI-H23 = assay: Growth inhibition of human NCI-H23 cells assessed as cell growth at 10^-6 M by sulforhodamine B assay; conditions: read-out: Activity
HOP-62 = assay: Growth inhibition of human HOP62 cells assessed as cell growth at 10^-6 M by sulforhodamine B assay; conditions: read-out: Activity
DU-145 [20] = assay: Growth inhibition of human DU145 cells assessed as cell growth at 10^-7 M by sulforhodamine B assay; conditions: read-out: Activity
[21] = Growth inhibition of human NCI-ADR-RES cells assessed as cell growth at 10^-7 M by sulforhodamine B assay; conditions: read-out: Activity
UACC-62 = assay: Growth inhibition of human UACC62 cells assessed as cell growth at 10^-7 M by sulforhodamine B assay; conditions: read-out: Activity
MDA-MB-435 = assay: Growth inhibition of human MDA-MB-435 cells assessed as cell growth at 10^-7 M by sulforhodamine B assay; conditions: read-out: Activity
NCI-H460 [22] = assay: Growth inhibition of human NCI-H460 cells assessed as cell growth at 10^-7 M by sulforhodamine B assay; conditions: read-out: Activity
RPMI-8226 [23] = assay: Growth inhibition of human RPMI8226 cells assessed as cell growth at 10^-7 M by sulforhodamine B assay; conditions: read-out: Activity
T47D = assay: Growth inhibition of human T47D cells assessed as cell growth at 10^-8 M by sulforhodamine B assay; conditions: read-out: Activity
DU-145 [24] = assay: Growth inhibition of human DU145 cells assessed as cell growth at 10^-8 M by sulforhodamine B assay; conditions: read-out: Activity
OVCAR-4 = assay: Growth inhibition of human OVCAR4 cells assessed as cell growth at 10^-8 M by sulforhodamine B assay; conditions: read-out: Activity
[25] = read-out: LC50 (the source's name)
[26] = read-out: pLC50 (the source's name) (converted)

For `CC(C)=CC(=O)O[C@@H]1CC(C)(C)C[C@H]2C3=CC[C@@H]4[C@@]5(C)CC[C@H](O)C(C)(C)[C@@H]5CC[C@@]4(C)[C@]3(C)CC[C@@]12C(=O)O` [Reduced Lantadene B], the GI50 (KM12 [1]; read-out: GI50) was 0.862 µM, the LC50 (50% net cell kill) (KM12 [1]; read-out: LC50) was greater than 100 µM and the TGI (KM12 [1]; read-out: TGI) was 19.6 µM. For the same compound, the GI50 (KM12 [1]; read-out: pGI50 (converted)) was 0.871 µM, the LC50 (50% net cell kill) (KM12 [1]; read-out: pLC50 (converted)) was greater than 100 µM and the TGI (KM12 [1]; read-out: pTGI (converted)) was 19.5 µM. It also gave a GI50 ([2]; HCC 2998, read-out: GI50) of 3.72 µM, a CC50 ([2]; HCC 2998, read-out: LC50 (the source's name)) of 62.9 µM and a TGI ([2]; HCC 2998, read-out: TGI) of 15.3 µM. The GI50 ([2]; HCC 2998, read-out: pGI50 (converted)) was 3.72 µM, the CC50 ([2]; HCC 2998, read-out: pLC50 (the source's name) (converted)) was 63.1 µM and the TGI ([2]; HCC 2998, read-out: pTGI (converted)) was 15.5 µM. The GI50 (MOLT-4 [3]; read-out: GI50) was 3.02 µM, the CC50 (MOLT-4 [3]; [25]) was greater than 100 µM and the TGI (MOLT-4 [3]; read-out: TGI) was 20.6 µM. It also gave a GI50 (MOLT-4 [3]; read-out: pGI50 (converted)) of 3.02 µM, a CC50 (MOLT-4 [3]; [26]) greater than 100 µM and a TGI (MOLT-4 [3]; read-out: pTGI (converted)) of 20.4 µM. The GI50 (RPMI-8226 [4]; read-out: GI50) was 2.43 µM, the CC50 (RPMI-8226 [4]; [25]) was greater than 100 µM and the TGI (RPMI-8226 [4]; read-out: TGI) was 38.3 µM. The GI50 (RPMI-8226 [4]; read-out: pGI50 (converted)) was 2.45 µM, the CC50 (RPMI-8226 [4]; [26]) was greater than 100 µM and the TGI (RPMI-8226 [4]; read-out: pTGI (converted)) was 38 µM. It also gave a GI50 (HL-60(TB) [5]; read-out: GI50) of 2.52 µM, a CC50 (HL-60(TB) [5]; [25]) of 86.3 µM and a TGI (HL-60(TB) [5]; read-out: TGI) of 6.86 µM. It also gave a GI50 (HL-60(TB) [5]; read-out: pGI50 (converted)) of 2.51 µM, a CC50 (HL-60(TB) [5]; [26]) of 87.1 µM and a TGI (HL-60(TB) [5]; read-out: pTGI (converted)) of 6.92 µM. It also gave a growth at 0.01 µM (IGROV-1) of 104%, a growth at 0.01 µM (SK-MEL-28 [6]) of 100% and a growth at 0.01 µM (SK-MEL-2) of 97%. The growth at 0.01 µM (M14) was 94%, the growth at 0.01 µM (SF-268 [7]) was 93% and the growth at 0.01 µM (SW-620 [8]) was 102%. The growth at 0.01 µM (RPMI-8226 [9]) was 100%, the growth at 0.01 µM (MOLT-4 [10]) was 106% and the growth at 0.01 µM (HL-60(TB) [11]) was 101%. It also gave a GI50 (SK-OV-3; read-out: GI50) of 12.8 µM, a CC50 (SK-OV-3; [25]) of 80.2 µM and a TGI (SK-OV-3; read-out: TGI) of 32 µM. For the same compound, the GI50 (SK-OV-3; read-out: pGI50 (converted)) was 12.9 µM, the CC50 (SK-OV-3; [26]) was 79.4 µM and the TGI (SK-OV-3; read-out: pTGI (converted)) was 32.4 µM. It also gave a GI50 (OVCAR-8; read-out: GI50) of 4.68 µM, a CC50 (OVCAR-8; [25]) greater than 100 µM and a TGI (OVCAR-8; read-out: TGI) of 28.9 µM. For the same compound, the GI50 (OVCAR-8; read-out: pGI50 (converted)) was 4.68 µM, the CC50 (OVCAR-8; [26]) was greater than 100 µM and the TGI (OVCAR-8; read-out: pTGI (converted)) was 28.8 µM. It also gave a GI50 (OVCAR-5; read-out: GI50) of 15.9 µM, a CC50 (OVCAR-5; [25]) of 98.9 µM and a TGI (OVCAR-5; read-out: TGI) of 39.7 µM. It also gave a GI50 (OVCAR-5; read-out: pGI50 (converted)) of 15.8 µM, a CC50 (OVCAR-5; [26]) of 100 µM and a TGI (OVCAR-5; read-out: pTGI (converted)) of 39.8 µM. The growth at 100 µM (SN12C [12]) was -91%, the growth at 100 µM (RXF 393) was -81% and the growth at 100 µM (SF-295) was -71%. The growth at 100 µM (SW-620 [13]) was -15%, the growth at 100 µM (KM12 [14]) was -47% and the growth at 100 µM (NCI-H460 [15]) was -4%. It also gave a growth at 100 µM (A549) of -56%, a growth at 100 µM (HL-60(TB) [16]) of -52% and a growth at 1 µM (SN12C [17]) of 89%. For the same compound, the growth at 1 µM (SK-MEL-28 [18]) was 97%, the growth at 1 µM (LOX IMVI) was 88% and the growth at 1 µM (SF-268 [19]) was 95%. The growth at 1 µM (NCI-H23) was 91%, the growth at 1 µM (HOP-62) was 88% and the growth at 0.1 µM (DU-145 [20]) was 100%. The growth at 0.1 µM [21] was 99%, the growth at 0.1 µM (UACC-62) was 90% and the growth at 0.1 µM (MDA-MB-435) was 97%. It also gave a growth at 0.1 µM (NCI-H460 [22]) of 100%, a growth at 0.1 µM (RPMI-8226 [23]) of 92% and a growth at 0.01 µM (T47D) of 93%. The growth at 0.01 µM (DU-145 [24]) was 101% and the growth at 0.01 µM (OVCAR-4) was 100%.
